# Measurements taken from article PMC11970527 (RSC Chemical Biology, 2025).
# Like-named read-outs stand apart in the source and are kept apart here.
# Experiments:
# [1] = pH 7.4; cited from earlier work
# VopA = assay: differential scanning fluorimetry; format: binding, Vibrio parahaemolyticus; settings: DSF, nonlinear curve fit, n = 5
# [2] = Precipitation Assay with CaCl2; format: physicochemical; settings: 4 mM ligand, pH 7.4, 100 mM tris
# TcdB CPD = TcdB CPD (Clostridioides difficile, UniProt P18177); assay: isothermal calorimetry; format: binding
# AvrA [3] = molecular target: T1, AvrA (Salmonella enterica subsp. enterica serovar Typhimurium, UniProt E8XKZ3); settings: read-out: Kd previously described; cited from earlier work
# T1 sequence (E8XKZ3 1-301): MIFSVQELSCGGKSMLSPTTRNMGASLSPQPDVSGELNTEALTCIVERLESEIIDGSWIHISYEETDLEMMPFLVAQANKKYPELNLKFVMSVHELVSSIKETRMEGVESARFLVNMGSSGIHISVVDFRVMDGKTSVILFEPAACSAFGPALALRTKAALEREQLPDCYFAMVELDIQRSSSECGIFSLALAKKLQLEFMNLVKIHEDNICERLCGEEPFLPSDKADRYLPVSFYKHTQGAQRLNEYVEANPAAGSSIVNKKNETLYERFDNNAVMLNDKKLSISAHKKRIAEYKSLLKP
# AvrA [4] = molecular target: T1, AvrA; assay: isothermal calorimetry; format: binding
# phytase-4 = assay: stability against phytase-4 by 31P NMR; format: in vitro ADME, wheat; settings: 4 mM ligand, over 32 h, 100 mM acetate buffer pH 5
# Chain of TcdB CPD (P18177 543-799 limits assumed): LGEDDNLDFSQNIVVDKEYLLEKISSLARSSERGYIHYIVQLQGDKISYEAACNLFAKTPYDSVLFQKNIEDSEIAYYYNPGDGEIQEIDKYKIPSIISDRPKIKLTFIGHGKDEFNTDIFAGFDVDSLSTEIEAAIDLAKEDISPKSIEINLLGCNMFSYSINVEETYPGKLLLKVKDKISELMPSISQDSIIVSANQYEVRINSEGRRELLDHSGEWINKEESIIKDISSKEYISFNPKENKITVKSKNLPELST
compound,measurement,setting,value
"O=P(O)(O)O[C@H]1[C@H](OP(=O)(O)O)[C@@H](OP(=O)(O)O)[C@H](OP(=O)(O)O)[C@@H](OP(=O)(O)O)[C@H]1OP(=O)(O)O [IP6, myo-inositol hexakisphosphate]",net charge,[1],−8
same,Maximal ΔTM,VopA,12.4 °C
same,CaCl2 concentration that induces precipitation (X0),[2],4 mM
same,Kd,TcdB CPD,1.92 µM
same,koff,TcdB CPD,0.0409 s⁻¹
same,ΔH,"TcdB CPD; TcdB CPD, ITC, 20 °C, mean (SD)",−22.94 (0.05) kcal mol^−1
same,Kd,AvrA [3],5.18 µM
same,koff,AvrA [4],0.00171 s⁻¹
same,ΔH,"AvrA [4]; AvrA, ITC, 20 °C, mean (SD)",−21.09 (0.12) kcal mol^−1
same,Kd,"AvrA [4]; K d, AvrA, ITC, 20 °C, mean (SD)",0.139 µM
same,stability in the presence of phytase-4,phytase-4,hydrolysed within the first hour
